The values below come from PMC12509006, “Synthesis and Evaluation of Pyridine-Based Antibacterial Agents that Inhibit ATP Synthase in Acinetobacter baumannii” (ACS Omega, 2025).

≈ marks a conversion by molar mass, not a printed value. Where two headings read alike, the source gives them in different places.

For series [1], the system named is AB BAA 1605. As to the kind of experiment: Checkerboard assay with colistin sulfate, BAA 1605.
Experimental: (§1) Synthesized compounds in DMSO (2–128 μg/mL, row G-A) were combined with colistin sulfate in ultra purified water (0.125–32 μg/mL, column 2–10) in a 96-well microtiter plate checkerboard assay against ATCC 17978 and BAA-1605 (MDR). Briefly, liquid cultures of bacteria were grown for 14–16 h by inoculating a single bacterial culture into 10 mL TSB. To each well 88 μL of TSB, 10 μL of bacteria culture, and 1 from each master plate was added (see layout below). Plates were covered and incubated at 37 °C for 12–18 h.
Series [2] deals with T1, A. baumannii ATP synthase (Acinetobacter baumannii, UniProt A3M139).
T1 construct: endogenous electron transport chains of inverted inner membrane vesicles were energized with NADH; endogenous in cells; host or cells: inverted inner membrane vesicles prepared from A. baumannii ATCC 17978 cells
Further details: method as in PMID 40014581. The conditions noted are these: quinoline lead of the earlier series, comparison; read-out: IC50, AB ATP synthase (converted); cited from earlier work.

Series [3] deals with HEK 293 cells. The series is described as follows: XTT cell viability cytotoxicity assay. Particulars: n = 3, 24 h treatment. (Formazan colour is commonly taken as a measure of viable cells.)
The test system of series [4] is AB ATCC 17978. As to the kind of experiment: Broth microdilution antimicrobial susceptibility assay, susceptible isolate. The conditions noted are these: Acinetobacter baumannii, ATCC17978, read-out: MIC, AB ATCC 17978. Background: Broth dilution looks for growth in wells or tubes with falling amounts of substance.
The test system of series [5] is MDR AB BAA 1605. Further details: method as in PMID 40014581. The conditions noted are these: quinoline lead of the earlier series, Figure 1; cited from earlier work.
Series [6] concerns AB ATCC 17978. The series is described as follows: Checkerboard assay with colistin sulfate, ATCC 17978.
Experimental: as §1
The test system of series [7] is MDR AB BAA 1605. As to the kind of experiment: Broth microdilution antimicrobial susceptibility assay, MDR isolate. The conditions noted are these: Acinetobacter baumannii, BAA1605, read-out: MIC, MDR AB BAA 1605.
In series [8] the target is T1, A. baumannii ATP synthase. The series is described as follows: AB ATP synthase inhibition: NADH-driven ATP synthesis in inverted inner membrane vesicles, luciferin/luciferase readout. The class given is biochemical. On the procedure: Once synthesized, the pyridine compounds were tested for their ability to inhibit ATP synthase activity using our previously reported luciferin/luciferase assay. Briefly, endogenous electron transport chains of inverted inner membrane vesicles were energized with NADH to generate a proton gradient and to drive ATP synthesis. ATP was measured via luminescence from the luciferase-catalyzed oxidation of D-luciferin. Luminescence activities across increasing inhibitor concentrations were corrected for gradient independent background sources of ATP by comparison with a control containing the protonophore CCCP (carbonyl cyanide 3-chlorophenylhydrazone). The data were then fit to a four-parameter logistic dose–response curve, from which IC50 values and Hill coefficients were determined using a nonlinear least-squares regression.
A. baumannii (ATCC 17978) cells were grown in LB medium at 37 °C with shaking at 150 rpm and harvested by centrifugation in the late exponential phase of growth. Cells were resuspended in TMG buffer (50 mM Tris-HCl, pH 7.5, 5 mM MgCl2, 10% v/v glycerol) with 1 mM phenylmethanesulfonyl fluoride, 1 mM dithiothreitol, and a small amount of DNase and lysed by two passes through an Avestin B15 homogenizer at 19,000 psi. Lysate was cleared by centrifugation at 9000g and inverted membrane vesicles were collected from the supernatant by centrifugation at 169,000g. To reduce background ATP synthesis activity in AB vesicles, it was important to wash the membranes by resuspending in TMG buffer and centrifuging again at 169,000g. Washed pellets were resuspended in TMG buffer, and aliquots were stored at −80 °C. Once thawed, aliquots were not refrozen. Protein concentration in membrane vesicles was determined using a modified Lowry assay.
In vitro ATP synthesis activity of inverted inner membrane vesicles was measured as previously described. A reaction solution was prepared containing 5 mM tricine-KOH, pH 8.0, 50 mM KCl, 2.5 mM MgCl2, 0.1 mM adenosine diphosphate, 3.75 mM potassium phosphate, and 2.5 mM NADH and distributed into a 96-well plate. NADH-driven ATP synthesis was initiated by addition of inverted vesicles to 50 μg/mL and allowed to proceed for 10 min. The reaction was stopped by transferring an aliquot into 1% trichloroacetic acid. The stopped reaction was diluted 100-fold with deionized water and a sample was transferred to luciferase solution containing 25 mM tricine-NaOH, pH 7.8, 5 mM MgSO4, 0.1 mM EDTA, 0.1 mM NaN3, 150 μg/mL luciferin, and 7.5 μg/mL luciferase. Luminescence was measured in an opaque white 96-well plate using a BioTek H1 multimode plate reader. Each replicate set included a positive control containing DMSO with no compound and a negative control containing carbonyl cyanide 3-chlorophenylhydrazone (CCCP). Luminescence values were corrected for background by subtracting the CCCP control and normalized to the luminescence of the DMSO control. Normalized activity was fit using a variable-slope dose response curve. Nonlinear regression, including prediction of 95% confidence bands, and pairwise comparisons of fits using the F-test method were completed using GraphPad Prism10. Relativeactivity=1/1+(c/IC50)^Hillslope […]
Figure S1. ATP synthesis inhibition by all pyridine compounds in order of WSA compound number. ATP synthesis activities in inverted inner membrane vesicles prepared from AB cells were measured in the presence of 0.0625-64 µg/mL, corrected for background ATP, and normalized to activity with DMSO alone (see methods). For each plot, dots are normalized activities at each concentration (n≥3) on a log 2 scale, solid lines are fitted dose response curves, and dashed lines show the 95% confidence range of the fit. IC50

Series [9] deals with AB electron transport chain (ETC). As to the kind of experiment: AB electron transport chain inhibition: NADH-driven H+ pumping, ACMA fluorescence quenching. The format is biochemical, Acinetobacter baumannii. The conditions noted are these: at 2 μg/mL compound. How it is done: To ensure that the pyridine analogs were selectively inhibiting AB ATP synthase, each analog was also evaluated for inhibition of the AB electron transport chain (ETC) at 2 μg/mL using a standard protocol. − Briefly, respiratory dehydrogenase complexes were energized with NADH to initiate redox-driven H^+ pumping into the vesicle lumen, which was in turn detected by the quenching of 9-amino-6-chloro-2-methoxyacradine fluorescence. Most compounds were tested at concentrations of 2 μg/mL to establish whether ETC inhibition occurred in the same range as ATP synthase inhibition (Figure S2).
NADH-driven proton pumping activity in inverted membrane vesicles was measured as previously described. Briefly, vesicles were diluted to 0.5 mg/mL in HMK buffer (50 mM HEPES, 2 mM MgCl2, 300 mM KCl, pH 7.5) with 0.3 μg/mL 9-amino-6-chloro-2-methoxyacridine (ACMA) and distributed into wells of a black 96-well plate containing various concentrations of inhibitors dissolved in DMSO. ACMA fluorescence (λex = 415 nm, λem = 485 nm) was monitored using a BioTek H1 multimode plate reader. Proton pumping was initiated by addition of NADH to 0.8 mM and terminated by addition of nigericin to 0.5 μg/mL. Activity was defined as the percent quenching of fluorescence, where fluorescence values are normalized to the maximum fluorescence following the addition of nigericin.
Figure S2. Inhibition of the AB electron transport chain (ETC) by compounds at 2 µg/mL.
ETC H+-pumping activity in inverted inner membrane vesicles prepared from AB cells was determined by the quenching of ACMA dye upon initiation with NADH. Addition of nigericin returned fluorescence to baseline, and relative fluorescence quenching is defined as the minimum fluorescence over the maximum fluorescence after addition of nigericin. Relative ETC inhibition (bars) is the fraction of fluorescence quenching decreased by the presence of 2 µg/mL compound.
(1 picture or pasted object on this page, not shown here)

Setting [10] is: synergistic FICI ≤ 0.5, additivity FICI 0.5 < x < 1.

T1 sequence (A3M139 whole entry): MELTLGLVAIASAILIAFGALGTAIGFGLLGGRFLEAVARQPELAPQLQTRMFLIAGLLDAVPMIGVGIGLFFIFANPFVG

The term MIC denotes the lowest concentration that inhibits growth of the organism. For orientation: IC50 means the concentration that inhibits the measured activity by half. For the compound `CCN1CCC(CCNCc2cc3cc(-c4ccccc4)ccc3nc2SCc2ccccc2)CC1` [WSA 261, reference compound], the MIC was 16 µg/mL in [1] (Acinetobacter baumannii, BAA1605, read-out: MIC alone, AB BAA 1605); 8 µg/mL (≈ 16.1 µM) in series [4]; 8 µg/mL in series [6] (Acinetobacter baumannii, ATCC17978, read-out: MIC alone, AB ATCC 17978); 16 µg/mL (≈ 32.3 µM) in series [7]. Besides, the “fold change of MIC, AB BAA 1605” value in series [1] (alone vs +colistin) is 2. For the same compound, the “fractional inhibitory concentration index (FICI) / interaction with colistin, MDR AB BAA 1605” value in series [1] (setting [10]) is recorded as “additivity”. For the same compound, the “MIC +colistin, AB BAA 1605” value in series [1] (with 0.25 μg/mL colistin) is 8 (0.25 μg/mL Col). The IC50 in series [2] was 1550 nM. Besides, the “MIC, HEK 293 (cytotoxicity)” value in [3] is 8 µg/mL (≈ 16.1 µM). Also, the “MDR AB MIC” value in series [5] was 16 µg/mL. Besides, the “fold change of MIC, AB ATCC 17978” value in series [6] (alone vs +colistin) is listed as 2. Besides, the “fractional inhibitory concentration index (FICI) / interaction with colistin, AB ATCC 17978” value in series [6] (setting [10]) was “additivity”. Also, the “MIC +colistin, AB ATCC 17978” value in [6] (with 0.5 μg/mL colistin) is 4 (0.5 μg/mL Col).

As to `COc1ccc(-c2cnc(SCc3ccccc3)c(CNCCN3CCN(C)CC3)c2)cc1F` [WSA 275], in series [3], the “MIC, HEK 293 (cytotoxicity)” value came to 4 µg/mL (≈ 8.32 µM). The MIC in series [4] turned out to be 32 µg/mL (≈ 66.6 µM); in series [7] it was 128 µg/mL (≈ 266 µM). Further, the IC50 was 416 nM in [8] (Figure 2, read-out: IC50, AB ATP synthase inhibition (converted)) and 499 nM in series [8] (inverted inner membrane vesicles, 0.0625-64 µg/mL, n≥3, Table S1, read-out: AB ATP Synthase Inhibition IC50 (converted)). In addition, the “Hill coefficient (Hill slope)” value in series [8] (fit of ATP synthesis dose response curve) is listed as -0.7. In addition, the ETC inhibition in [9] is recorded as 40%.
